Data reported in US6420330B1, “Use of quaternary carboxylic acid alkanolamine ester salts as microbicide agents” (Cognis Deutschland GmbH, priority 1997, dated 2002).

Legend:
Experiment in all cases: DGHM suspension test, microbicidal activity
Format in all cases: cell-based
[1] = tested on: Pseudomonas aeruginosa ATCC 15442
Protocol: (§1) The microbicidal activity of the quanterary carboxylic acid alkanolamine ester salts used in accordance with the invention was tested against the following selected test germs:
(§2) The effectiveness of the compound to be tested was determined by the suspension test in accordance with the guidelines of the Deutsche Gesellschaft for Hygiene and Mikrobiologie (DGHM). Test solutions containing quatemary carboxylic acid alkanolamine ester salts in the quantities shown in the Tables of 50, 100, 200, 400 and 800 mg/l were prepared using water with a hardness of 17° dH and optionally isopropanol.
(§3) At room temperatures, quantities of 0.1 ml test germ suspension were pipetted into test tubes containing 10 ml of the test solutions described above and mixed. After various contact times of 5, 15, 30 and 60 minutes, 1 ml of material was taken from the test tubes by pipette and transferred to 9 ml inactivator solution (inactivators: 3.0% Tween, 0.3% lecithin, 0.1% histidine). After in activation for at least 5 and at most 30 minutes, the living germ count was determined by plating out onto casein peptone-soybean flour peptone (CaSo)-agar plates. Using a spiral plater, the inactivating mixture was directly plated out onto CaSo-agar. The samples were incubated for 24 to 72 hours at 37° C. and macroscopically evaluated for growth. The destruction time or the residual germ count was determined in this way. The germ count of an unchallenged water control is related to the germ count of the inactivated test solution taking the dilution into account. The higher the value, the better the microbicidal effect. The symbol < means that the logarithmic reductuon factor is below the indicated value or, in the case of the symbol >, above the indicated value. The abbreviation CU stands for “concentration used”.

[2] = tested on: Candida albicans ATCC 10231
Protocol: as §1, §2, §3

[3] = tested on: Staphylococcus aureus ATCC 6538
Protocol: as §1, §2, §3

[4] = CU 50 mg/l, contact time 5 mins.
[5] = CU 50 mg/l, contact time 15 mins.
[6] = CU 50 mg/l, contact time 30 mins.
[7] = CU 50 mg/l, contact time 60 mins.
[8] = CU 100 mg/l, contact time 5 mins.
[9] = CU 100 mg/l, contact time 15 mins.
[10] = CU 100 mg/l, contact time 30 mins.
[11] = CU 100 mg/l, contact time 60 mins.
[12] = CU 200 mg/l, contact time 5 mins.
[13] = CU 200 mg/l, contact time 15 mins.
[14] = CU 200 mg/l, contact time 30 mins.
[15] = CU 200 mg/l, contact time 60 mins.
[16] = CU 400 mg/l, contact time 5 mins.
[17] = CU 400 mg/l, contact time 15 mins.
[18] = CU 400 mg/l, contact time 30 mins.
[19] = CU 400 mg/l, contact time 60 mins.
[20] = CU 800 mg/l, contact time 5 mins.
[21] = CU 800 mg/l, contact time 15 mins.
[22] = CU 800 mg/l, contact time 30 mins.
[23] = CU 800 mg/l, contact time 60 mins.

## CCCCCCCC(=O)OCC[N+](C)(C)CCOC(=O)CCCCCCC.COS(=O)(=O)[O-] [Example 1, dimethyl diethanolammonium dicaprylic acid ester methosulfate]
[1]; [4]
  logarithmic reduction factor: <1.83
[1]; [5]
  logarithmic reduction factor: <1.47
[1]; [6]
  logarithmic reduction factor: <1.55
[1]; [7]
  logarithmic reduction factor: <1.56
[1]; [8]
  logarithmic reduction factor: <1.83
[1]; [9]
  logarithmic reduction factor: <1.47
[1]; [10]
  logarithmic reduction factor: <1.55
[1]; [11]
  logarithmic reduction factor: <1.56
[1]; [12]
  logarithmic reduction factor: <1.83
[1]; [13]
  logarithmic reduction factor: <1.47
[1]; [14]
  logarithmic reduction factor: <1.55
[1]; [15]
  logarithmic reduction factor: <1.56
[1]; [16]
  logarithmic reduction factor: <1.83
[1]; [17]
  logarithmic reduction factor: <1.47
[1]; [18]
  logarithmic reduction factor: 3.22
[1]; [19]
  logarithmic reduction factor: 4.41
[1]; [20]
  logarithmic reduction factor: >5.83
[1]; [21]
  logarithmic reduction factor: >5.47
[1]; [22]
  logarithmic reduction factor: >5.55
[1]; [23]
  logarithmic reduction factor: >5.56
[2]; [4]
  logarithmic reduction factor: <0.50
[2]; [5]
  logarithmic reduction factor: <0.37
[2]; [6]
  logarithmic reduction factor: <0.35
[2]; [7]
  logarithmic reduction factor: <0.36
[2]; [8]
  logarithmic reduction factor: <0.50
[2]; [9]
  logarithmic reduction factor: 0.41
[2]; [10]
  logarithmic reduction factor: 0.60
[2]; [11]
  logarithmic reduction factor: 0.70
[2]; [12]
  logarithmic reduction factor: 1.53
[2]; [13]
  logarithmic reduction factor: 2.53
[2]; [14]
  logarithmic reduction factor: 2.91
[2]; [15]
  logarithmic reduction factor: 3.61
[2]; [16]
  logarithmic reduction factor: >4.5
[2]; [17]
  logarithmic reduction factor: >4.37
[2]; [18]
  logarithmic reduction factor: >4.35
[2]; [19]
  logarithmic reduction factor: >4.36
[2]; [20]
  logarithmic reduction factor: >4.50
[2]; [21]
  logarithmic reduction factor: >4.37
[2]; [22]
  logarithmic reduction factor: >4.35
[2]; [23]
  logarithmic reduction factor: >4.36
[3]; [4]
  logarithmic reduction factor: <1.32
[3]; [5]
  logarithmic reduction factor: <1.71
[3]; [6]
  logarithmic reduction factor: <1.23
[3]; [7]
  logarithmic reduction factor: <1.32
[3]; [8]
  logarithmic reduction factor: <1.32
[3]; [9]
  logarithmic reduction factor: <1.71
[3]; [10]
  logarithmic reduction factor: <1.23
[3]; [11]
  logarithmic reduction factor: <1.32
[3]; [12]
  logarithmic reduction factor: <1.32
[3]; [13]
  logarithmic reduction factor: <1.71
[3]; [14]
  logarithmic reduction factor: <1.23
[3]; [15]
  logarithmic reduction factor: <1.32
[3]; [16]
  logarithmic reduction factor: <1.32
[3]; [17]
  logarithmic reduction factor: <1.1
[3]; [18]
  logarithmic reduction factor: 1.95
[3]; [19]
  logarithmic reduction factor: 3.54
[3]; [20]
  logarithmic reduction factor: <1.32
[3]; [21]
  logarithmic reduction factor: <3.59
[3]; [22]
  logarithmic reduction factor: <3.96
[3]; [23]
  logarithmic reduction factor: >5.32

## CCCCCCCCCCCC(=O)OCC[N+](C)(CCO)CCOC(=O)CCCCCCCCCCC.COS(=O)(=O)[O-] [Example 5, methyl triethanolammonium dilauric acid ester methosulfate]
[1]; [4]
  logarithmic reduction factor: <1.85
[1]; [5]
  logarithmic reduction factor: <1.79
[1]; [6]
  logarithmic reduction factor: <1.71
[1]; [7]
  logarithmic reduction factor: <1.51
[1]; [8]
  logarithmic reduction factor: <1.85
[1]; [9]
  logarithmic reduction factor: <1.79
[1]; [10]
  logarithmic reduction factor: <1.71
[1]; [11]
  logarithmic reduction factor: <1.81
[1]; [12]
  logarithmic reduction factor: <1.85
[1]; [13]
  logarithmic reduction factor: <1.79
[1]; [14]
  logarithmic reduction factor: <1.71
[1]; [15]
  logarithmic reduction factor: <1.81
[1]; [16]
  logarithmic reduction factor: <1.85
[1]; [17]
  logarithmic reduction factor: <1.79
[1]; [18]
  logarithmic reduction factor: <1.71
[1]; [19]
  logarithmic reduction factor: 3.84
[1]; [20]
  logarithmic reduction factor: <1.85
[1]; [21]
  logarithmic reduction factor: 3.43
[1]; [22]
  logarithmic reduction factor: 3.95
[1]; [23]
  logarithmic reduction factor: 4.40
[3]; [4]
  logarithmic reduction factor: <1.79
[3]; [5]
  logarithmic reduction factor: <1.73
[3]; [6]
  logarithmic reduction factor: 2.53
[3]; [7]
  logarithmic reduction factor: 3.88
[3]; [8]
  logarithmic reduction factor: <1.79
[3]; [9]
  logarithmic reduction factor: 2.38
[3]; [10]
  logarithmic reduction factor: 3.80
[3]; [11]
  logarithmic reduction factor: 5.21
[3]; [12]
  logarithmic reduction factor: 2.52
[3]; [13]
  logarithmic reduction factor: 4.25
[3]; [14]
  logarithmic reduction factor: >5.75
[3]; [15]
  logarithmic reduction factor: >5.86
[3]; [16]
  logarithmic reduction factor: 2.70
[3]; [17]
  logarithmic reduction factor: >5.73
[3]; [18]
  logarithmic reduction factor: >5.75
[3]; [19]
  logarithmic reduction factor: >5.86
[3]; [20]
  logarithmic reduction factor: 3.85
[3]; [21]
  logarithmic reduction factor: >5.73
[3]; [22]
  logarithmic reduction factor: >5.75
[3]; [23]
  logarithmic reduction factor: >5.86

## CCCCCCCCCC(=O)OCC[N+](C)(CCOC(=O)CCCCCCCCC)CCOC(=O)CCCCCCCCC.COS(=O)(=O)[O-] [Example 9, methyl triethanolammonium tricapric acid ester methosulfate]
[1]; [8]
  logarithmic reduction factor: <1.88
[1]; [9]
  logarithmic reduction factor: <1.93
[1]; [10]
  logarithmic reduction factor: <1.80
[1]; [11]
  logarithmic reduction factor: <1.90
[1]; [12]
  logarithmic reduction factor: <1.88
[1]; [13]
  logarithmic reduction factor: <1.93
[1]; [14]
  logarithmic reduction factor: <1.80
[1]; [15]
  logarithmic reduction factor: 2.94
[1]; [16]
  logarithmic reduction factor: <1.88
[1]; [17]
  logarithmic reduction factor: <1.93
[1]; [18]
  logarithmic reduction factor: 3.27
[1]; [19]
  logarithmic reduction factor: 3.72
[3]; [4]
  logarithmic reduction factor: <1.39
[3]; [5]
  logarithmic reduction factor: <1.59
[3]; [6]
  logarithmic reduction factor: <1.51
[3]; [7]
  logarithmic reduction factor: <1.60
[3]; [8]
  logarithmic reduction factor: <1.39
[3]; [9]
  logarithmic reduction factor: <1.59
[3]; [10]
  logarithmic reduction factor: <1.51
[3]; [11]
  logarithmic reduction factor: 2.09
[3]; [12]
  logarithmic reduction factor: <1.39
[3]; [13]
  logarithmic reduction factor: <1.59
[3]; [14]
  logarithmic reduction factor: 1.83
[3]; [15]
  logarithmic reduction factor: 2.97

## CCCCCCCCCCCC(=O)OCC[N+](C)(C)CCOC(=O)CCCCCCCCCCC.COS(=O)(=O)[O-] [Example 8, dimethyl diethanolammonium dilauric acid ester methosulfate]
[1]; [4]
  logarithmic reduction factor: <1.88
[1]; [5]
  logarithmic reduction factor: <1.93
[1]; [6]
  logarithmic reduction factor: <1.80
[1]; [7]
  logarithmic reduction factor: <1.90
[1]; [8]
  logarithmic reduction factor: <1.88
[1]; [9]
  logarithmic reduction factor: <1.93
[1]; [10]
  logarithmic reduction factor: <1.80
[1]; [11]
  logarithmic reduction factor: 3.05
[1]; [12]
  logarithmic reduction factor: <1.88
[1]; [13]
  logarithmic reduction factor: <1.93
[1]; [14]
  logarithmic reduction factor: 3.05
[1]; [15]
  logarithmic reduction factor: 3.77
[3]; [4]
  logarithmic reduction factor: <1.39
[3]; [5]
  logarithmic reduction factor: 3.24
[3]; [6]
  logarithmic reduction factor: 4.28
[3]; [7]
  logarithmic reduction factor: 4.23
[3]; [8]
  logarithmic reduction factor: 1.98
[3]; [9]
  logarithmic reduction factor: 3.40
[3]; [10]
  logarithmic reduction factor: 5.29
[3]; [11]
  logarithmic reduction factor: >5.60
[3]; [12]
  logarithmic reduction factor: 2.34
[3]; [13]
  logarithmic reduction factor: 4.64
[3]; [14]
  logarithmic reduction factor: >5.51
[3]; [15]
  logarithmic reduction factor: >5.60
